Tests used:
Puccinia recondita = test: Example IX-A: in vivo preventive test on Puccinia recondita (brown rust on wheat); details: 264 h, compounds of formula IX, 500 ppm of active ingredient, wheat plants, preventive spray, evaluated 11 days after inoculation, read-out: efficacy
Description: Example IX-A: In Vivo Preventive Test on Puccinia Recondita (Brown Rust on Wheat)
(§1) The active ingredients are made soluble and homogenized in a mixture of Dimethyl sulfoxide/Acetone/Tween® 80 and then diluted in water to the desired concentration.
(§2) The young plants of wheat are treated by spraying the active ingredient prepared as described above. Control plants are treated only with an aqueous solution of Acetone/Dimethyl sulfoxide/Tween® 80.
After 24 hours, the plants are contaminated by spraying the leaves with an aqueous suspension of Puccinia recondita spores. The contaminated wheat plants are incubated for 24 hours at 20° C. and at 100% relative humidity and then for 10 days at 20° C. and at 70-80% relative humidity.
The test is evaluated 11 days after the inoculation. 0% means an efficacy which corresponds to that of the control plants while an efficacy of 100% means that no disease is observed.

Septoria tritici = test: Example IX-B: in vivo preventive test on Septoria tritici (leaf spot on wheat); details: Zymoseptoria tritici, 576 h; compounds of formula IX; 500 ppm of active ingredient; wheat plants, preventive spray; evaluated 24 days after inoculation; read-out: efficacy
Description: Example IX-B: In Vivo Preventive Test on Septoria Tritici (Leaf Spot on Wheat)
as §1, §2
After 24 hours, the plants are contaminated by spraying the leaves with an aqueous suspension of Septoria tritici spores. The contaminated wheat plants are incubated for 72 hours at 18° C. and at 100% relative humidity and then for 21 days at 20° C. and at 90% relative humidity.
The test is evaluated 24 days after the inoculation. 0% means an efficacy which corresponds to that of the control plants while an efficacy of 100% means that no disease is observed.

[1] = Log P by HPLC on reversed phase columns (EEC directive 79/831 Annex V.A8; methods [a], [b], [c]); format: physicochemical; details: for chromatographic logP: reversed phase HPLC column, method [a]: LC-UV, acidic range, 0.1% formic acid in water and acetonitrile as eluent (linear gradient from 10% to 95% acetonitrile)
Summary of the method: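 Log P derived from retention times, interpolated linearly between bracketing straight-chain alkan-2-ones (3–16 carbons) of known Log P. Eluents ran acetonitrile 10% to 95% against water with 0.1% formic acid ([a], acidic), 0.001 M ammonium acetate ([b], neutral) or 0.1% phosphoric acid ([c], acidic); UV read-out.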

Sphaerotheca fuliginea = test: Example IX-C: in vivo preventive test on Sphaerotheca fuliginea (powdery mildew on cucurbits); details: Podosphaera fuliginea, 360 h; compounds of formula IX; 500 ppm of active ingredient; gherkin plants, preventive spray; evaluated 15 days after inoculation; read-out: efficacy
Description: Example IX-C: In Vivo Preventive Test on Sphaerotheca Fuliginea (Powdery Mildew on Cucurbits)
as §1
The young plants of gherkin are treated by spraying the active ingredient prepared as described above. Control plants are treated only with an aqueous solution of Acetone/Dimethyl sulfoxide/Tween® 80.
After 24 hours, the plants are contaminated by spraying the leaves with an aqueous suspension of Sphaerotheca fuliginea spores. The contaminated gherkin plants are incubated for 72 hours at 18° C. and at 100% relative humidity and then for 12 days at 20° C. and at 70-80% relative humidity.
The test is evaluated 15 days after the inoculation. 0% means an efficacy which corresponds to that of the control plants while an efficacy of 100% means that no disease is observed.

SMILES	chromatographic logP [1]	LogP [1]	pest or weed control at 500 ppm (Puccinia recondita)	pest or weed control at 500 ppm (Septoria tritici)	pest or weed control at 500 ppm (Sphaerotheca fuliginea)
N#Cc1cncn1CC(=O)c1cnc(Oc2ccc(Cl)cc2F)cc1C(F)(F)F [IX-96]	3.46		80 to 89%	90 to 100%	90 to 100%
N#Cc1cncn1CC(=O)c1ccccc1Cl [IX-126]	1.81			80 to 89%	70 to 79%
CC(=O)c1cncn1CC(=O)c1ccc(Oc2ccc(C(F)(F)F)nc2)nc1C(F)(F)F [IX-133]	2.6			90 to 100%	
N#Cc1cncn1CC(=O)c1cnc(Oc2ccc(Cl)nc2)cc1C(F)(F)F [IX-141]	2.62			90 to 100%	90 to 100%
N#Cc1cncn1CC(=O)c1cnc(Oc2ccc(Br)nc2)cc1C(F)(F)F [IX-143]	2.71		80 to 89%	90 to 100%	90 to 100%
O=C(Cn1cncc1Cl)c1ccc(Cl)cc1Cl [IX-19]	1.94			90 to 100%	90 to 100%
O=C(Cn1cncc1Cl)c1ccc(Oc2ccc(C(F)(F)F)cc2)c(Br)c1 [IX-16]	3.29			90 to 100%	
N#Cc1cncn1CC(=O)c1ccc(F)cc1 [IX-100, 3-[2-(4-fluorophenyl)-2-oxo-ethyl]imidazole-4-carbonitrile]	1.58			90 to 100%	90 to 100%
O=C(Cn1cncc1Cl)c1ccc(F)cc1Br [IX-35]	1.57				90 to 100%
O=C(Cn1cncc1Br)c1ccc(Oc2ccc(C(F)(F)F)cc2)cc1C(F)(F)F [IX-51]	3.51		80 to 89%	90 to 100%	90 to 100%
O=C(Cn1cncc1Br)c1ccc(Oc2ccc(C(F)(F)F)cc2)c(Cl)c1 [IX-03]	3.23			90 to 100%	
CC(=O)c1cncn1CC(=O)c1ccc(Oc2ccc(Br)cc2)nc1C(F)(F)F [IX-122]	3.31			90 to 100%	90 to 100%
N#Cc1cncn1CC(=O)c1ccc(Oc2c(F)cc(Cl)cc2F)nc1C(F)(F)F [IX-124]	3.28			90 to 100%	
O=C(Cn1cncc1Cl)c1ccc(Oc2ccc(Cl)cn2)cc1C(F)(F)F [IX-72]	2.75		80 to 89%	90 to 100%	70 to 79%
COc1ccc(Oc2ccc(C(=O)Cn3cncc3Cl)c(C)n2)c(Cl)c1 [IX-25]	2.33			90 to 100%	
O=C(Cn1cncc1Br)c1ccc(Oc2ccc(Cl)nc2)nc1Cl [IX-27]	2.13			90 to 100%	90 to 100%
N#Cc1cncn1CC(=O)c1ccccc1F [IX-113]	1.65			70 to 79%	

SMILES	chromatographic logP [1]	LogP [1]	pest or weed control at 500 ppm (Puccinia recondita)	pest or weed control at 500 ppm (Septoria tritici)	pest or weed control at 500 ppm (Sphaerotheca fuliginea)
O=C(Cn1cncc1Cl)c1ccc(Oc2ccc(Cl)nc2)cc1C(F)(F)F [IX-28]	2.45		80 to 89%	90 to 100%	90 to 100%
N#Cc1cncn1CC(=O)c1ccc(C(F)(F)F)cc1 [IX-117]	1.99			90 to 100%	
N#Cc1cncn1CC(=O)c1ccc(Oc2ccc(Cl)nc2)nc1C(F)(F)F [IX-140]	2.55			90 to 100%	90 to 100%
O=C(Cn1cncc1Cl)c1ncc(Oc2ccccc2)cc1Cl [IX-01]	2.44			80 to 89%	
N#Cc1cncn1CC(=O)c1ccc(OC(F)(F)F)cc1 [IX-116]	2.12			80 to 89%	80 to 89%
O=C(Cn1cncc1Br)c1ccc(Cl)cc1Cl [IX-20]	1.94			90 to 100%	90 to 100%
CC(=O)c1cncn1CC(=O)c1cnc(Oc2ccc(C(F)F)cc2)cc1C(F)(F)F [IX-103]	2.71			90 to 100%	90 to 100%
COc1cc(F)ccc1C(=O)Cn1cncc1Cl [IX-11]	1.34			90 to 100%	
N#Cc1cncn1CC(=O)c1ccccc1Br [IX-127]	1.79			90 to 100%	
N#Cc1cncn1CC(=O)c1ccccc1C(F)(F)F [IX-138]	2.07				90 to 100%
O=C(Cn1cncc1F)c1ccc(Oc2ccc(Br)nc2)nc1C(F)(F)F [IX-142]	2.14			90 to 100%	90 to 100%
N#Cc1cncn1CC(O)(c1ccc(F)cc1Br)C1CCC1 (stereo not drawn) [I-449]		2.86^[a]			
CC(C)CCCC(O)(Cn1cncc1C#N)C1(F)CC1 (stereo not drawn) [I-671]		2.82^[a]			
N#Cc1cncn1CC(O)c1cnc(Oc2ccc(C(F)(F)F)cc2)cc1Br (stereo not drawn) [I-130]		3.13^[a]			
Cc1ccc(C#CC(O)(Cn2cncc2C#N)C2(F)CC2)cc1 (stereo not drawn) [I-373]		2.52^[a]			
OC(Cn1cncc1Br)c1ccc(Oc2ccccc2)cc1Cl (stereo not drawn) [I-27]		2.21^[a]			

Continued, in another order:

chromatographic logP [1]	LogP [1]	SMILES	pest or weed control at 500 ppm (Puccinia recondita)	pest or weed control at 500 ppm (Septoria tritici)	pest or weed control at 500 ppm (Sphaerotheca fuliginea)
2.8		N#Cc1cncn1CC(=O)c1ccc(Oc2ccc(Cl)cn2)cc1Cl [IX-70]	80 to 89%	70 to 79%	90 to 100%
4.16		O=C(Cn1cncc1C(F)(F)F)c1ccc(Oc2ccc(I)cc2)cc1F [IX-49]	80 to 89%	90 to 100%	
2.63		O=C(Cn1cncc1Br)c1ccc(Oc2ccc(Cl)cc2)cc1 [IX-22]	80 to 89%	90 to 100%	90 to 100%
2.34		N#Cc1cncn1CC(=O)c1ccc(Cl)cc1Cl [IX-99]	70 to 79%	90 to 100%	90 to 100%
3.35		O=C(Cn1cncc1Br)c1ccc(Oc2ccc(Cl)cc2)cc1C(F)(F)F [IX-41]	80 to 89%	90 to 100%	
2.7		N#Cc1cncn1CC(=O)c1ccc(Oc2ccc(Br)nc2)cc1Cl [IX-76]		90 to 100%	
2.2		O=C(Cn1cncc1Cl)c1ccc(Oc2ccc(Cl)nc2)cc1Cl [IX-44]	80 to 89%	90 to 100%	90 to 100%
3.01		N#Cc1cncn1CC(=O)c1ccc(Oc2ccc(Cl)cn2)cc1C(F)(F)F [IX-71]	90 to 100%	90 to 100%	90 to 100%
2.25		O=C(Cn1cncc1Br)c1ccc(Oc2ccc(Cl)nc2)cc1Cl [IX-56]	80 to 89%	90 to 100%	
3		O=C(Cn1cncc1Cl)c1ccc(Oc2ccc(Cl)cc2)nc1C(F)(F)F [IX-52]	90 to 100%	90 to 100%	70 to 79%
2.63		O=C(Cn1cncc1Cl)c1ccc(Oc2ccc(Cl)cc2)cc1 [IX-21]	80 to 89%	90 to 100%	90 to 100%
2.32		N#Cc1ccc(Oc2ccc(C(=O)Cn3cncc3Cl)c(Cl)c2)cc1 [IX-12]		90 to 100%	90 to 100%
	2.44^[a]	N#Cc1cncn1CC(O)(c1ccc(Cl)c(F)c1)C1(F)CC1 (stereo not drawn) [I-446]			
	3.21^[a]	COc1ccc(C(O)(Cn2cncc2C#N)CC(C)(C)C)c(Cl)c1 (stereo not drawn) [I-367]			
	2.18^[a]	N#Cc1cncn1CC(O)(c1ccc(F)c(F)c1F)C1(F)CC1 (stereo not drawn) [I-634]			
	3.59^[a]	COC(Cn1cncc1Br)c1ccc(Oc2ccc(Cl)cc2)cc1Br (stereo not drawn) [I-50]			
	3.78^[a]	N#Cc1cncn1CC(O)(c1ccc(Oc2ccc(Cl)cc2)cc1Cl)C1(Cl)CC1 (stereo not drawn) [I-391]			

— patent publication US20200031778A1, “NOVEL 5-SUBSTITUTED IMIDAZOLYLMETHYL DERIVATIVES” (Bayer CropScience Aktiengesellschaft, priority 2016, published 2020)
